Experimental findings from ChEMBL document CHEMBL1201862, “PubChem BioAssay data set” (2004) are described below.

The target of test [1] is T1, Replicative DNA helicase DnaB (Mycobacterium tuberculosis, UniProt P9WMR3).
T1 sequence (P9WMR3 whole entry): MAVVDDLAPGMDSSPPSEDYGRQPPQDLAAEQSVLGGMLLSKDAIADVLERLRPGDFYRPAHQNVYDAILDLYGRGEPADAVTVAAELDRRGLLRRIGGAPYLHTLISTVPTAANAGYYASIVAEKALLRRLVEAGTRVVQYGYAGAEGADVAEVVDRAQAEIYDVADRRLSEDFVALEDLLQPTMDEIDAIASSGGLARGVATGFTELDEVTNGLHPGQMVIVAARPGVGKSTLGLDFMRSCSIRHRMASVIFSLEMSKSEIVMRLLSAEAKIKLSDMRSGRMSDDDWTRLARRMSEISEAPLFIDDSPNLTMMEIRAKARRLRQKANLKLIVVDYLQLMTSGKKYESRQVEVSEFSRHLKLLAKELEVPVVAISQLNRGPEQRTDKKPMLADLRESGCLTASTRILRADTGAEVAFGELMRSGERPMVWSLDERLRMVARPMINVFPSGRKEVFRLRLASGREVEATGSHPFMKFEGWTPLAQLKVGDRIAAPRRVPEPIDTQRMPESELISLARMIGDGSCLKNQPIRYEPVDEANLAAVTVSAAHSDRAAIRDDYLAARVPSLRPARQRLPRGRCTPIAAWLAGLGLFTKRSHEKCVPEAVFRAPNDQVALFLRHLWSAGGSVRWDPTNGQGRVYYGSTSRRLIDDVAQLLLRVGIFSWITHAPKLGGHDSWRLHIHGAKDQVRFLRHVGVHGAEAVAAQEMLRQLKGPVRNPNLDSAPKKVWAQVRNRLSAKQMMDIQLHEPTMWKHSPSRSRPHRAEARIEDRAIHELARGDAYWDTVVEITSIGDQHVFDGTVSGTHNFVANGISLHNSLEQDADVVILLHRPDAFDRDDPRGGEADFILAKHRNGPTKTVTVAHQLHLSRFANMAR
The experiment in a line: DnaB intein splicing inhibitors, dose response, biochemical, cell-free fluorescence (AID 449749). In kind it is functional.

In test [2] the target is T2, Corticotropin-releasing factor receptor 2/Corticotropin-releasing factor-binding protein (Homo sapiens, UniProt P24387+Q13324).
T2 sequence (Q13324 whole entry): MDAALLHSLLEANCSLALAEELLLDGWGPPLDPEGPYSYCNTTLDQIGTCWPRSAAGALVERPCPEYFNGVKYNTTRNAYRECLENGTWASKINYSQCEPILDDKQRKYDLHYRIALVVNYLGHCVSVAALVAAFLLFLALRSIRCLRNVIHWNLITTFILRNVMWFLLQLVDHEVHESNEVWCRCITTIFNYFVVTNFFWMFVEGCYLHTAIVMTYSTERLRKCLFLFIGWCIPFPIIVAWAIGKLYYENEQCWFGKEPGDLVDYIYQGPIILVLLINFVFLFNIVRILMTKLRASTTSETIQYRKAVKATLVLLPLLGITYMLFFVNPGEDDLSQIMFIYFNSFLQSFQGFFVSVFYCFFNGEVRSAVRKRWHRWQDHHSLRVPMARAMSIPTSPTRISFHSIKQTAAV
T2 sequence (P24387 whole entry): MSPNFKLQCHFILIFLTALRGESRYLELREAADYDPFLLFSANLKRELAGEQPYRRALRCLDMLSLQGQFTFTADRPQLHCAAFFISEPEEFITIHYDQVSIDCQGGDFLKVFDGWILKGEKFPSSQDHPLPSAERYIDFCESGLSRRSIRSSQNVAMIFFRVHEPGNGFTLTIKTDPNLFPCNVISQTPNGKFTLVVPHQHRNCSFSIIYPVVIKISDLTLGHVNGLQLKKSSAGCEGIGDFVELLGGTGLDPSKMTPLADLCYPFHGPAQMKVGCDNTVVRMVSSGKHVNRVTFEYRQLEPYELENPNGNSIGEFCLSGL
The experiment in a line: activators of CRF receptor 2 with binding protein – uHTS hits, confirmation (AID 602473). Type of test: functional. Particulars: read-out: EC50_Mean.

The target of a further test is Caspase-7 (Homo sapiens, UniProt P55210). In words: caspase-7 enzyme inhibition, selectivity check – biochemical, DEVD-R110 fluorescence, cherry-pick, selectivity assay for caspase-6 inhibitor project, dose response (AID 743295). Type of test: functional.
The target of test [3] is Glycogen synthase kinase-3 beta (Homo sapiens, UniProt P49841). In kind it is functional.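 Further: value comes from a broad kinome profiling panel, with GSK3B as the panel member.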
Test [4] addresses 3-phosphoinositide-dependent protein kinase 1 (Homo sapiens, UniProt O15530). In kind it is functional.
For test [5], the target named is Tyrosine-protein kinase Srms (Homo sapiens, UniProt Q9H3Y6). In kind it is functional.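 Further: SRMS measured as one member of a kinome-wide kinase profiling panel.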
The target of test [6] is Fibroblast growth factor receptor 3 (Homo sapiens, UniProt P22607). Type of test: functional.
The target in test [7] is Tyrosine-protein kinase ABL1 (Homo sapiens, UniProt P00519). Type of test: functional.
Test [8] addresses Tyrosine-protein kinase receptor TYRO3 (Homo sapiens, UniProt Q06418). In kind it is functional.
Test [9] deals with Casein kinase I isoform delta (Homo sapiens, UniProt P48730). In kind it is functional.
The target in test [10] is Fibroblast growth factor receptor 1 (Homo sapiens, UniProt P11362). Type of test: functional.
Test [11] deals with Dual specificity tyrosine-phosphorylation-regulated kinase 1A (Homo sapiens, UniProt Q13627). Type of test: functional.
For test [12], the target named is Macrophage colony-stimulating factor 1 receptor (Homo sapiens, UniProt P07333). Type of test: functional.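 Further: value comes from the Navigating the Kinome screening panel, CSF1R member.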
Test [13] addresses Insulin-like growth factor 1 receptor (Homo sapiens, UniProt P08069). The experiment in a line: Navigating the Kinome. Panel member name: IGF1R. Type of test: functional.
Test [14] has as its target Casein kinase I isoform alpha (Homo sapiens, UniProt P48729). Type of test: functional.
Test [15] addresses Rho-associated protein kinase 1 (Homo sapiens, UniProt Q13464). Type of test: functional.
Test [16] concerns the target Tyrosine-protein kinase Lck (Homo sapiens, UniProt P06239). Type of test: functional.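 Further: lck was assayed as one member of a kinase panel.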
In test [17] the target is Hepatocyte growth factor receptor (Homo sapiens, UniProt P08581). Type of test: functional.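 Further: kinase panel profiling across the kinome, with MET as the panel member.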
Test [18] concerns the target Casein kinase II subunit alpha (Homo sapiens, UniProt P68400). Type of test: functional.
For test [19], the target named is Mitogen-activated protein kinase 12 (Homo sapiens, UniProt P53778). Type of test: functional.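 Further: measured as one member of a kinome-wide kinase profiling panel.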
Test [20] deals with Dual specificity tyrosine-phosphorylation-regulated kinase 3 (Homo sapiens, UniProt O43781). In kind it is functional.
In test [21] the target is Serine/threonine-protein kinase D2 (Homo sapiens, UniProt Q9BZL6). In kind it is functional.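 Further: measured against PRKD2 as one member of a kinome-wide kinase profiling panel.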
Test [22] deals with Serine/threonine-protein kinase N2 (Homo sapiens, UniProt Q16513). In kind it is functional.

Structures are written as SMILES. Calls of active or inactive are those of the source.

Sequence of Dual specificity tyrosine-phosphorylation-regulated kinase 3 (O43781 whole entry): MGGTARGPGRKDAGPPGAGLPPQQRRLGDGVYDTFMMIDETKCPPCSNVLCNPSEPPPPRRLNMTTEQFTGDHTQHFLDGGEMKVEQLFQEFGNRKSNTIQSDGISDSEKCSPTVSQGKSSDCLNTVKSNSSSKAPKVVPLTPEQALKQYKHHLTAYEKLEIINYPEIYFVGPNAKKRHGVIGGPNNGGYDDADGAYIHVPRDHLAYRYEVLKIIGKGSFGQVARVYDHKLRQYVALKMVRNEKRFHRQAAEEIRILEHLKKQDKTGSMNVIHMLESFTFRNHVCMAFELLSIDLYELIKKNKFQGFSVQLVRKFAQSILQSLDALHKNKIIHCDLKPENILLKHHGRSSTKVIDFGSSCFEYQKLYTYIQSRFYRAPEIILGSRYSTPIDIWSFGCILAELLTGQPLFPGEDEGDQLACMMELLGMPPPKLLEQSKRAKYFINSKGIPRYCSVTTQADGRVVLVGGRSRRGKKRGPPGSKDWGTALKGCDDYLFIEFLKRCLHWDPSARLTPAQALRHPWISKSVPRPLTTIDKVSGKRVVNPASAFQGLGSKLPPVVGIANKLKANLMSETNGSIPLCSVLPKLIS
Sequence of Serine/threonine-protein kinase D2 (Q9BZL6 whole entry): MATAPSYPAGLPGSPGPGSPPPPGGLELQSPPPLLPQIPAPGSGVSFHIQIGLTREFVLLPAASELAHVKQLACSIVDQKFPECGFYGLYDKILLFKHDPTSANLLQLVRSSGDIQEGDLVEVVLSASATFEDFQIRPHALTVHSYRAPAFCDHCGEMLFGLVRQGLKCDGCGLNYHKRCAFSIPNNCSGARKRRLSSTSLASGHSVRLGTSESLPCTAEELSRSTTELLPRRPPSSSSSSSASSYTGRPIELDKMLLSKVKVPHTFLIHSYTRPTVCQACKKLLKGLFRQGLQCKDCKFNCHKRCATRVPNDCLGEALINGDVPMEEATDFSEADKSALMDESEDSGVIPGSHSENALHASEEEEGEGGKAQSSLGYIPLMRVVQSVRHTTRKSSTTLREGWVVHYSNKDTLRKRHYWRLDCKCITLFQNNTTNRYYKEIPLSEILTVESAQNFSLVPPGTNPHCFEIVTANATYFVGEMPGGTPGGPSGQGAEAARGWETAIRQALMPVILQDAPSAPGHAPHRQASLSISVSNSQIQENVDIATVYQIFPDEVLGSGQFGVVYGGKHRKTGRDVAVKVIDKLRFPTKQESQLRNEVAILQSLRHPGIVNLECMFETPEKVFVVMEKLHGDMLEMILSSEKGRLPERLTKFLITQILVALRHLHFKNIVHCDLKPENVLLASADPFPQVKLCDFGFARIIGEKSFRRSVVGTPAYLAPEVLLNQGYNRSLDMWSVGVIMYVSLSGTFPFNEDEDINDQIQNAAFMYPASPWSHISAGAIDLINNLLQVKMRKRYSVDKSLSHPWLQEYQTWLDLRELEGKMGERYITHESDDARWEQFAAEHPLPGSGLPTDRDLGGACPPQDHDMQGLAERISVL
Sequence of Glycogen synthase kinase-3 beta (P49841 whole entry): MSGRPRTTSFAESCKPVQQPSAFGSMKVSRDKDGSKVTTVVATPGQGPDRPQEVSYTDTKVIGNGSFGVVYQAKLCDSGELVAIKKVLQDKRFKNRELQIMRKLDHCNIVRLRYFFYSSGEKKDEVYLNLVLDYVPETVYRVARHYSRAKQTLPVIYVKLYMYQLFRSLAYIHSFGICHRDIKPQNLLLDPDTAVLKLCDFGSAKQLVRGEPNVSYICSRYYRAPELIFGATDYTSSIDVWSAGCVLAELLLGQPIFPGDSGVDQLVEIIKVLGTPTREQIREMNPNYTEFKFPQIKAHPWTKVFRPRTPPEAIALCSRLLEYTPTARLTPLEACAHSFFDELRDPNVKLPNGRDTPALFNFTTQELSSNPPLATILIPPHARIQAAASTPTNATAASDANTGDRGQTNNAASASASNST
Sequence of Insulin-like growth factor 1 receptor (P08069 31-736 limits assumed): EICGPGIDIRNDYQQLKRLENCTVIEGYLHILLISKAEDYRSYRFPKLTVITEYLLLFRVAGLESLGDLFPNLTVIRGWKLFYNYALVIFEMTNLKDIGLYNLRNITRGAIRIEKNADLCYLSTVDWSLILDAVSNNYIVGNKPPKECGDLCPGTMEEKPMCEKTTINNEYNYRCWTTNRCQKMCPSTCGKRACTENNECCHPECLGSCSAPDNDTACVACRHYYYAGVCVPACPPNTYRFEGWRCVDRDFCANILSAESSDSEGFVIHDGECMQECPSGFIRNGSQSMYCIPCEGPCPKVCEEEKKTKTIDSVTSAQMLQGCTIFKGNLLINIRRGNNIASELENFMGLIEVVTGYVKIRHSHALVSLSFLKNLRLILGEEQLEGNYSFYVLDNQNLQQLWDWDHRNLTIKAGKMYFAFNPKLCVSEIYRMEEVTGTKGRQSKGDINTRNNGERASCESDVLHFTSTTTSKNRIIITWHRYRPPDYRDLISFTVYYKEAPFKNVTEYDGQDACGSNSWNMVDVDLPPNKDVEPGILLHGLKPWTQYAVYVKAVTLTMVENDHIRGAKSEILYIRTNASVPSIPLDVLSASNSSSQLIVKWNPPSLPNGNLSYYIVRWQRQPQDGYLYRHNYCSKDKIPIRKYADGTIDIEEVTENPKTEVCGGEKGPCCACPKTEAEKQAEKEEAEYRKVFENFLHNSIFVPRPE
Sequence of Insulin-like growth factor 1 receptor (P08069 741-1367 limits assumed): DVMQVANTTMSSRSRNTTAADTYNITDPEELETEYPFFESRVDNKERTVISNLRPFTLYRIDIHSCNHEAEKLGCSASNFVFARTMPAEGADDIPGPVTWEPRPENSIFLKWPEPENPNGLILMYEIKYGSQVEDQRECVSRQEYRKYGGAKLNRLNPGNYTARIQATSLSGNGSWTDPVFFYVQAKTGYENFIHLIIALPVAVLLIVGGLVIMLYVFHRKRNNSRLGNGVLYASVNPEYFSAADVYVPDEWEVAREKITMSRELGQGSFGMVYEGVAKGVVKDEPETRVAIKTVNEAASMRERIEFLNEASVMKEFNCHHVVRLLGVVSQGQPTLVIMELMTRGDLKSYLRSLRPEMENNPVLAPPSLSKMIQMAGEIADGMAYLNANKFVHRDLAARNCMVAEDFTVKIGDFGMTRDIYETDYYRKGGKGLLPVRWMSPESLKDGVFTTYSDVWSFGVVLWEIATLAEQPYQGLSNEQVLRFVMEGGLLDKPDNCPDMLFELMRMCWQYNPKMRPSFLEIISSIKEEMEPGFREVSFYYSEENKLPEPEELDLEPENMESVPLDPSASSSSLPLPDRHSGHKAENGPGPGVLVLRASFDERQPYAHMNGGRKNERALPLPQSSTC
Sequence of Hepatocyte growth factor receptor (P08581 whole entry): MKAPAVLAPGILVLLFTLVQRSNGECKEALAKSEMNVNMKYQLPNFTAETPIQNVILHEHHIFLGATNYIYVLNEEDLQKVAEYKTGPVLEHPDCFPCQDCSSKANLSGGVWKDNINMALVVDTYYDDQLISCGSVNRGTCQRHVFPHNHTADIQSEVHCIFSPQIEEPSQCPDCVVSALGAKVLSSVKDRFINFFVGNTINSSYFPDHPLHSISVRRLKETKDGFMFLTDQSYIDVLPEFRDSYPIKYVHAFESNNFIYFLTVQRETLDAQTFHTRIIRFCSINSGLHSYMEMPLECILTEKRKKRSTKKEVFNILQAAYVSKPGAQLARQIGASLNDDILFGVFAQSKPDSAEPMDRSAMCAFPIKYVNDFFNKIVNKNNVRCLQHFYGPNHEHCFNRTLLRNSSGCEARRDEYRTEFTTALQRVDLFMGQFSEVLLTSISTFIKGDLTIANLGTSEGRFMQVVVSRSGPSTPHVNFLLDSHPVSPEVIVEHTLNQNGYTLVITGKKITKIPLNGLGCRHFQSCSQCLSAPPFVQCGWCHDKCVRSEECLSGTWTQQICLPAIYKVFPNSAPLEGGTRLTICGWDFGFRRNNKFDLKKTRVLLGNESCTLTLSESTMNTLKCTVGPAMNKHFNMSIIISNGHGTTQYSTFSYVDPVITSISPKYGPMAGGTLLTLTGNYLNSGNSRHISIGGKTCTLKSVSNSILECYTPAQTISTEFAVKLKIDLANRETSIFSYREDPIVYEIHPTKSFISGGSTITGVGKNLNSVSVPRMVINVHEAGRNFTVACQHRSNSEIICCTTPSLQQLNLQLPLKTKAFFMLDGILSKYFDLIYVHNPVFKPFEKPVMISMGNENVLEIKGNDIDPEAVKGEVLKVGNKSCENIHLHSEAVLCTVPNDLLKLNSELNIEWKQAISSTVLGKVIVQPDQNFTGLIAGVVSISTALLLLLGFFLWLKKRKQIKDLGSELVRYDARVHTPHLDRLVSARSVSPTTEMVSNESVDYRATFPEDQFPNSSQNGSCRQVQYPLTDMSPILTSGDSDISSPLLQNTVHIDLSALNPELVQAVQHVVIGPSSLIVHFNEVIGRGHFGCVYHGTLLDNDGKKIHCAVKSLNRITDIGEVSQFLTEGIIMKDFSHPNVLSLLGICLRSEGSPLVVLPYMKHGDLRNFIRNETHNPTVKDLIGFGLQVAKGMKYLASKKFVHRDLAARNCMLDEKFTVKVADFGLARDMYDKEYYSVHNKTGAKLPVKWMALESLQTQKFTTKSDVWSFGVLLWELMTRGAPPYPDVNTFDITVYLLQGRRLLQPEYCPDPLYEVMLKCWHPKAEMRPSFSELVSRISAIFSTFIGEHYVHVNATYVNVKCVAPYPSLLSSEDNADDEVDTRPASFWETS
Sequence of Casein kinase I isoform delta (P48730 whole entry, canonical isoform): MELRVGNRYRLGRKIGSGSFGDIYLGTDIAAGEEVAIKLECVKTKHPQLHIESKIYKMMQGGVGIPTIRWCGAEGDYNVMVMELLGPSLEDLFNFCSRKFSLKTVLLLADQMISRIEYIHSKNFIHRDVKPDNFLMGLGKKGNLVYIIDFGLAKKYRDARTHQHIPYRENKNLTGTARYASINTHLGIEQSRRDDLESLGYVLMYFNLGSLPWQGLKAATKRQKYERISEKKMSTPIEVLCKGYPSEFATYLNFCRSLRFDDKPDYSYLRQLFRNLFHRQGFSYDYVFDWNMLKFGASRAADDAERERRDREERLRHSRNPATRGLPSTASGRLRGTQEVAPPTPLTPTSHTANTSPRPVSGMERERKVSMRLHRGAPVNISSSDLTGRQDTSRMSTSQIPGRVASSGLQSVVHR

Consider `COc1ccc(C(C[N+](=O)[O-])c2c(C)[nH]n(-c3ccccc3)c2=O)cc1` (stereo not drawn), for which the AC50 (usually the concentration giving half of the maximal activity seen) in [1] is 3000 nM (active).

On to `O=C(COC(=O)c1ccc([N+](=O)[O-])s1)Nc1cccc(S(=O)(=O)/N=C2/CCCCCN2)c1`, for which the EC50 in [2] is > 53000 nM (inactive). In addition, the AC50 at Caspase-7 was 14600 nM (active).

As to `Oc1c2ccccc2c2c3c(cccc13)N=N2` [SP-600125], the Ki (commonly the dissociation constant of the complex between target and ligand, obtained from inhibition or displacement) in [3] was 316 nM (active); in test [4], 631 nM (active); in test [5] it was > 1580 nM (inactive); in test [6], 158 nM (active); in test [7], > 631 nM (inactive); in [8], 1000 nM (active). The Ki in test [9] was 31.6 nM (active); in test [10], 251 nM (active); in [11], 126 nM (active); in [12], 126 nM (active); in [13], > 2000 nM (inactive); in test [14], 316 nM (active). The Ki in test [15] was 2000 nM (active); in test [16], 2000 nM (active); in test [17] it was 501 nM (active); in test [18], 501 nM (active); in test [19], > 6310 nM (inactive); in [20], 316 nM (active). For the same compound, the Ki in test [21] was 158 nM (active); in test [22] it was > 7940 nM (inactive).
